The assay deals with T1, recombinant human secreted phospholipase A2 (Homo sapiens, UniProt P14555).
T1 sequence (P14555 21-144): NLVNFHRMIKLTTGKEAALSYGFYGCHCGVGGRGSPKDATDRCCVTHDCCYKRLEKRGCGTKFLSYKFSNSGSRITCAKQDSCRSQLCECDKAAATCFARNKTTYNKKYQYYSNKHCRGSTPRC
The assay can be described thus: chromogenic assay of recombinant human secreted phospholipase A2 inhibition. In kind it is biochemical. The settings on record: diheptanoyl thio-PC substrate, pH 7.5, 40° C. for 30 minutes, absorbance at 405 nanometers, triplicate; read-out: Inhibition of human secreted PLA2 IC50 ± mean deviation. The text has this: The following chromogenic assay procedure was used to identify and evaluate inhibitors of recombinant human secreted phospholipase A2. The assay described herein has been adapted for high volume screening using 96 well microtiter plates. A general description of this assay method is found in the article, “Analysis of Human Synovial Fluid Phospholipase A2 on Short Chain Phosphatidylcholine-Mixed Micelles: Development of a Spectrophotometric Assay Suitable for a Microtiterplate Reader”, by Laure J. Reynolds, Lori L. Hughes, and Edward A Dennis, Analytical Biochemistry, 204, pp. 190-197, 1992 (the disclosure of which is incorporated herein by reference):
REACTION BUFFER— • CaCl2.2H2O (1.47 g/L) • KCl (7.455 g/L) • Bovine Serum Albumin (fatty acid free)(1 g/L) • (Sigma A-7030, product of Sigma Chemical Co., St. Louis Mo., USA) • TRIS HCl (3.94 g/L) • pH 7.5 (adjust with NaOH)
ENZYME BUFFER— • 0.05 NaOAc.3H2O, pH 4.5 • 0.2 NaCl • Adjust pH to 4.5 with acetic acid
DTNB—5,5′-dithiobis-2-nitrobenzoic acid
RACEMIC DIHEPTANOYL THIO—PC
racemic 1,2-bis(heptanoylthio)-1,2-dideoxy-sn-glycero-3-phosphorylcholine
TRITON X-100™ prepare at 6.249 mg/ml in reaction buffer to equal […].
A measured volume of racemic dipheptanoyl thio PC supplied in chloroform at a concentration of 100 mg/ml is taken to dryness and redissolved in 10 millimolar
TRITON X-100™ nonionic detergent aqueous solution. Reaction Buffer is added to the solution, then DTNB to give the Reaction Mixture.
The reaction mixture thus obtained contains 1 mM diheptanoly thio-PC substrate, 0.29 mm Triton X-100™ detergent, and 0.12 mm DTMB in a buffered aqueous solution at pH 7.5.
• 1. Add 0.2 ml reaction mixture to all wells; • 2. Add 10 ul test compound (or solvent blank) to appropriate wells, mix 20 seconds; • 3. Add 50 nanograms of sPLA2 (10 microliters) to appropriate wells; • 4. Incubate plate at 40° C. for 30 minutes; • 5. Read absorbance of wells at 405 nanometers with an automatic plate reader.
All compounds were tested in triplicate. Typically, compounds were tested at a final concentration of 5 ug/ml. […] Lack of color development at 405 nanometers evidenced inhibition. Compounds initially found to be active were reassayed to confirm their activity and, if sufficiently active, IC50 values were determined. […] In all cases, % inhibition measured at 405 nanometers generated by enzyme reactions containing inhibitors relative to the uninhibited control reactions was determined. Each sample was titrated in triplicate and result values were averaged for plotting and calculation of IC50 values. IC50 were determined by plotting log concentration versus inhibition values in the range from 10-90% inhibition.

Our source for the IC50 values is patent US7026348B2, “Indole sPLA2 inhibitors” (Eli Lilly and Company, priority 1998, dated 2006).

SMILES strings stand for the structures. Structures can show the parent of a compound that is named as a salt.

With `CCc1c(C(=O)C(N)=O)c2c(OCC(=O)NS(C)(=O)=O)cccc2n1Cc1ccccc1` [Example 1, 1-benzyl-2-ethyl-4-methanesulfonamidoylmethyloxy-indole-3-glyoxylamide], the half-maximal inhibitory concentration (IC50) (usually the point on the concentration scale where inhibition reaches its midpoint) was determined as 0.012 µM. As for `CCc1c(C(=O)C(N)=O)c2c(OCC(=O)NS(=O)(=O)C(F)(F)F)cccc2n1Cc1ccccc1` [Example 3, 1-benzyl-2-ethyl-4-trifluoromethanesulfonamidoylmethyloxy-indole-3-glyoxylamide], the figure is 0.017 µM; as for `CCc1c(C(=O)C(N)=O)c2c(OCC(=O)NS(=O)(=O)c3ccccc3C)cccc2n1Cc1ccccc1` [Example 4, 1-benzyl-2-ethyl-4-(2-methylbenzenesulfonamidoylmethyloxy)-indole-3-glyoxylamide], 0.009 µM; as for `CCc1c(C(=O)C(N)=O)c2c(OCC(=O)NS(=O)(=O)c3ccccc3)cccc2n1Cc1ccccc1` [Example 2, 1-benzyl-2-ethyl-4-benzenesulfonamidoylmethyloxy-indole-3-glyoxylamide], 0.007 µM.

Turning to `CCc1c(C(=O)C(N)=O)c2c(OCC(=O)NS(=O)(=O)c3ccc(CCN)cc3)cccc2n1Cc1ccccc1` [Example 5, 1-benzyl-2-ethyl-4-(4-(2-aminoethyl)benzenesulfonamidoylmethyloxy)-indole-3-glyoxylamide, Hydrochloride Salt], the IC50 came to 0.016 µM.
